Reference: ChEMBL document CHEMBL1201862, “PubChem BioAssay data set” (2004)
Active and inactive are the calls of the source.

Assays:
[1] = mitochondrial function rescue without frataxin homolog – Friedreich's ataxia, plus single-dose screen, dose response (AID 1465); assay type: functional;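 further: yeast depleted of Yfh1p frataxin homolog grown on glycerol needing respiration; WST-1 tetrazolium dye reduction as measure of cellular dehydrogenase metabolic activity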
[2] = target: T1, Microphthalmia-associated transcription factor (Homo sapiens, UniProt O75030); assay: reducers of TRPM1 reporter luminescence, concentration series – cell-based, SK-MEL-5, cherry-picked, set 3, MITF inhibitor project, dose response (AID 493073); assay type: functional;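 further: SK-MEL-5 melanoma cells with luciferase driven by the MITF target TRPM1 promoter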
T1 sequence (O75030 whole entry): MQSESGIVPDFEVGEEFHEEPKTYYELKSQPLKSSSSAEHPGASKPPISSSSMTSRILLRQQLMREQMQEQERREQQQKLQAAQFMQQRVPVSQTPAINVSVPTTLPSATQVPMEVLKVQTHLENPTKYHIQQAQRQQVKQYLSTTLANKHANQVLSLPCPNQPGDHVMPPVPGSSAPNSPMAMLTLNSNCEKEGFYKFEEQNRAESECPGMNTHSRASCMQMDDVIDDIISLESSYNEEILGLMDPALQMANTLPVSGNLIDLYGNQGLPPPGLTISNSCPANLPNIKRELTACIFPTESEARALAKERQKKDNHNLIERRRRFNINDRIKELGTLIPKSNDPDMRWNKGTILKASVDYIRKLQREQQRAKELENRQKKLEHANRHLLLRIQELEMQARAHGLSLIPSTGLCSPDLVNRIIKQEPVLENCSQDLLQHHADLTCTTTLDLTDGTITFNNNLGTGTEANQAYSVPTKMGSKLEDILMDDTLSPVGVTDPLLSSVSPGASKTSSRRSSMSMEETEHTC

[3] = target: Sphingosine 1-phosphate receptor 1 (Homo sapiens, UniProt P21453); assay type: functional;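 further: Tango beta-arrestin reporter U2OS cells stimulated with S1P near its EC80; inhibitor potency meaning antagonism of receptor activation by the natural agonist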
[4] = target: Sphingosine 1-phosphate receptor 4 (Homo sapiens, UniProt O95977); assay: Fluorescence dose response cell-based high throughput screening assay for antagonists of the Sphingosine 1-Phosphate Receptor 4 (S1P4). [Related pubchem assays: 1524 (Confirmation in triplicates.), 1510 (Primary screen.)]; assay type: functional
[5] = reduced cellular PGC1a acetyl-lysine signal – cell-based, cherry-picked samples, dose response (AID 720514); assay type: functional;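 further: potency may reflect raised or lowered acetylation signal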
[6] = viability of PTEN-deleted HCT116 cells – cell-based, HCT116 PTEN knockout, dose response (AID 1047); assay type: functional;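 further: HCT116 colon tumor cells with PTEN knocked out; cells exposed to compound for 60 hours before readout; potency for loss of cell viability measured by luminescence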
[7] = viability of HCT116 lacking mutant beta-catenin – cell-based, human colon tumor, dose response (AID 1045); assay type: functional;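 further: HCT116 colon tumor cells with beta catenin knocked out; cells exposed to compound for 60 hours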
[8] = Counterscreen for IDE inhibitors: Luminescence-based cell-based high throughput dose response assay to identify compounds that are cytotoxic to HEK cells. [Related pubchem assays: 434962 (Primary screen (IDE inhibitors in singlicate)), 449730 (Counterscreen (Cytotoxicity in triplicate)), 435028 (Confirmation (IDE inhibitors in triplicate)) …; assay type: functional; details: HEK293
[9] = target: T2, DNA repair protein RAD52 homolog (Homo sapiens, UniProt P43351); assay type: functional, biochemical
T2 sequence (P43351 whole entry): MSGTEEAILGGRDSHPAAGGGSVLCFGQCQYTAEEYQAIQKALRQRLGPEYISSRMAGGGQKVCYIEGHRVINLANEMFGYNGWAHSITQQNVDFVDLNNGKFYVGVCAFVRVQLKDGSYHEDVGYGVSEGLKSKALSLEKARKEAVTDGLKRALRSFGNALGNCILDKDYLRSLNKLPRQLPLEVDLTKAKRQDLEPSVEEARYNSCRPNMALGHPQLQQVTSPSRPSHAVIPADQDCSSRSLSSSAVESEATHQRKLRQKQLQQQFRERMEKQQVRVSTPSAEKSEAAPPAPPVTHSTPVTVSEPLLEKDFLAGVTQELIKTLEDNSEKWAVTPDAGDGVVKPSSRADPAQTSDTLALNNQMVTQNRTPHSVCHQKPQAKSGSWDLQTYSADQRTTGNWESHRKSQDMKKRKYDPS

Insulin-degrading enzyme = target: T3, Insulin-degrading enzyme (Homo sapiens, UniProt P14735); assay: Dose Response: Fluorescence polarization-based cell-based high throughput dose response assay for inhibitors of insulin-degrading enzyme (IDE). [Related pubchem assays: 434962 (Primary screen (IDE inhibitors in singlicate)), 449730 (Counterscreen (Cytotoxicity in triplicate)), 435028 (Confirmation (IDE inhibitors in triplicate)), 434984 (Summary …; assay type: functional
T3 sequence (P14735 whole entry): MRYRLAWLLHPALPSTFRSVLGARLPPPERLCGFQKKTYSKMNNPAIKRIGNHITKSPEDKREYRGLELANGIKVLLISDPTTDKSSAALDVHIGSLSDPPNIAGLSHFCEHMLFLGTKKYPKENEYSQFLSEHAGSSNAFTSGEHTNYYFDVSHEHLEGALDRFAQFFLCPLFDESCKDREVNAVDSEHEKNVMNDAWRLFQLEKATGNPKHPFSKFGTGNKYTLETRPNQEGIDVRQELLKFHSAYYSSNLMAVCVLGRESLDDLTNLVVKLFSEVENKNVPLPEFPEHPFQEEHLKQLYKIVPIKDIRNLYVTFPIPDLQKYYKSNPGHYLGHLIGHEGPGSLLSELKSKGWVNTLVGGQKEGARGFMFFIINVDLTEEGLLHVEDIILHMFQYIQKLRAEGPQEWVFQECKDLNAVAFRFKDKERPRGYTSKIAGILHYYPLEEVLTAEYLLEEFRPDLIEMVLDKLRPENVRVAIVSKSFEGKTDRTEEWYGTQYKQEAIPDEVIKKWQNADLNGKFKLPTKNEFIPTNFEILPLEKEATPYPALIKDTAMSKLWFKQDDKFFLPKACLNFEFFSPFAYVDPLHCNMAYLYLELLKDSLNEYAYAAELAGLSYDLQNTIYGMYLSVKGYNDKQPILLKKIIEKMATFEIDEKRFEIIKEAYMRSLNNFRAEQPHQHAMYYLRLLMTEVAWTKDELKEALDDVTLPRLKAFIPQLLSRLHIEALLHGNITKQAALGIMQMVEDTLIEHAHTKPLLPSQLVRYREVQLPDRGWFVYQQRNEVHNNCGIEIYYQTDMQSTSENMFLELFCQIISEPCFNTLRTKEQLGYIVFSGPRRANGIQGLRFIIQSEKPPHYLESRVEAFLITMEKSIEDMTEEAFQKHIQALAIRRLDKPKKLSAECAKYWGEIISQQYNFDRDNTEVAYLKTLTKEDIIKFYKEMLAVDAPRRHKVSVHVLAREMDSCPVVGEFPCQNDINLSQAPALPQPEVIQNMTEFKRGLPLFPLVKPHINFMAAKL

Bcl-2-like protein 10 = target: T4, Bcl-2-like protein 10 (Homo sapiens, UniProt Q9HD36); assay: Concentration-response of Bcl-B inhibitors by biochemical FP with TR3 (AID 1243); assay type: functional
T4 sequence (Q9HD36 whole entry): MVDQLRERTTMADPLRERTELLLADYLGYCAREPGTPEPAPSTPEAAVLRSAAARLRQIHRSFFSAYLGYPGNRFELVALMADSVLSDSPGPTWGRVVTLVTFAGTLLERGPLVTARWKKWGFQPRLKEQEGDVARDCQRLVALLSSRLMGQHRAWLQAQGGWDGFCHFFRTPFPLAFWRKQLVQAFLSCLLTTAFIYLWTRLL

[10] = target: FAD-linked sulfhydryl oxidase ALR (Homo sapiens, UniProt P55789); assay: ALR-catalysed DTT oxidation blockers – biochemical, H2O2 detection, luminescence, cherry-pick, dose response (AID 493248)
[11] = CCR5-tropic HIV-1 fusion blockers – cell-based, CCR5-tropic Env, dose response (AID 2279); assay type: functional
Genome polyprotein = Genome polyprotein (dengue virus type 2, UniProt P29990); assay: flavivirus cap methylation enzyme inhibition – biochemical, confirmation dose response, primary screen (AID 588689); assay type: functional
[12] = target: Induced myeloid leukemia cell differentiation protein Mcl-1 (Homo sapiens, UniProt Q07820); assay type: functional
Vero = assay: viability of Vero cells under compound – cytotoxicity control for flavivirus capping enzyme inhibitors (AID 588742); assay type: functional; details: Chlorocebus sabaeus

Sequence of Genome polyprotein (P29990 2492-3391 limits assumed): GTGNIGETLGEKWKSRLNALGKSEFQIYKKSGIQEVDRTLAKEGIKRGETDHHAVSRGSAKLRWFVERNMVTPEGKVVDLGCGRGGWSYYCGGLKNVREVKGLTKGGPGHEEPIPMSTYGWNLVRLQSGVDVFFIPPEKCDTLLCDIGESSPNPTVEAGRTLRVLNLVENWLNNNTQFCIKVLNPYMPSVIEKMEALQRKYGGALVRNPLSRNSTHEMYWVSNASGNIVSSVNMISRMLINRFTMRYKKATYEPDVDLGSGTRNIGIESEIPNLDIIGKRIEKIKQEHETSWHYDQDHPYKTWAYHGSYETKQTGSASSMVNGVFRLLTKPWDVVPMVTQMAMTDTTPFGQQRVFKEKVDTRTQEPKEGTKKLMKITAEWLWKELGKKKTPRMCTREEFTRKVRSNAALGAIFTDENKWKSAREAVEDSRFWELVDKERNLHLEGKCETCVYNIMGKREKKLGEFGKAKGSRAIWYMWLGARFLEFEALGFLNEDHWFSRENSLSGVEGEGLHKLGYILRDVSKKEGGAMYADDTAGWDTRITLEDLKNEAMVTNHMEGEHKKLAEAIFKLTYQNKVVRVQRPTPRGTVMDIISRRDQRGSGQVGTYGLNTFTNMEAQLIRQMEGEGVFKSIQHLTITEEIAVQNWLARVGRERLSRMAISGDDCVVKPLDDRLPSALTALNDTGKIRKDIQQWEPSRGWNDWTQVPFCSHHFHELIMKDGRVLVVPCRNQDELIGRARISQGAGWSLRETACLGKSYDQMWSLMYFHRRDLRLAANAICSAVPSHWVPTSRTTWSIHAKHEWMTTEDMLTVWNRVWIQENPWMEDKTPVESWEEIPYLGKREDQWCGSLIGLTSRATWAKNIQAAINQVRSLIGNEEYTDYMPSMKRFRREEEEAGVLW
Sequence of FAD-linked sulfhydryl oxidase ALR (P55789 whole entry, the tested form may be a part): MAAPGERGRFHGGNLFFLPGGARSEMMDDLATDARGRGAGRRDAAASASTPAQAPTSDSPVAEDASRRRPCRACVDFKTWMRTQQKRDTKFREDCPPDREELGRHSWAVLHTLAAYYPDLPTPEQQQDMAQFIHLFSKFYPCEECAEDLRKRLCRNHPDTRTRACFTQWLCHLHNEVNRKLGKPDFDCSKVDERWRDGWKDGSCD
Sequence of Sphingosine 1-phosphate receptor 4 (O95977 whole entry): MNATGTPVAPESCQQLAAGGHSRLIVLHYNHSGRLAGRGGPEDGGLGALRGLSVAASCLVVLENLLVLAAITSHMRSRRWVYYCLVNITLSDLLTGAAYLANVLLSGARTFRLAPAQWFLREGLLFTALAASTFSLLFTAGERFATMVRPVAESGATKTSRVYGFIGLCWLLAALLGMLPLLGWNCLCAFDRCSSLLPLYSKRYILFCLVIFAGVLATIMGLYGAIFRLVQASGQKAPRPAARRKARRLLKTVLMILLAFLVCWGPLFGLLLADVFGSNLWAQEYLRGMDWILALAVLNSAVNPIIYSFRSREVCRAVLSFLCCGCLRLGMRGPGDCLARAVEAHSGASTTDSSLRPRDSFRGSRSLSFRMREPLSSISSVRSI
Sequence of Induced myeloid leukemia cell differentiation protein Mcl-1 (Q07820 whole entry): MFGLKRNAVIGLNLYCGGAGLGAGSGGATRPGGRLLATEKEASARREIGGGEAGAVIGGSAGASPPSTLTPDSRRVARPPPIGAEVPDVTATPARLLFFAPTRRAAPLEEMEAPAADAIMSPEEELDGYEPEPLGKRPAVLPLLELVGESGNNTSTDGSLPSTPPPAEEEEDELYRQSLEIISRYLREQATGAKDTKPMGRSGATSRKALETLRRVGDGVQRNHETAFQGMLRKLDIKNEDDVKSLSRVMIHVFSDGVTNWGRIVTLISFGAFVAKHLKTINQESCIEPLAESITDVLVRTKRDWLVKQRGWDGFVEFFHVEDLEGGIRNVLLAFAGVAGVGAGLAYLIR
Sequence of Sphingosine 1-phosphate receptor 1 (P21453 whole entry): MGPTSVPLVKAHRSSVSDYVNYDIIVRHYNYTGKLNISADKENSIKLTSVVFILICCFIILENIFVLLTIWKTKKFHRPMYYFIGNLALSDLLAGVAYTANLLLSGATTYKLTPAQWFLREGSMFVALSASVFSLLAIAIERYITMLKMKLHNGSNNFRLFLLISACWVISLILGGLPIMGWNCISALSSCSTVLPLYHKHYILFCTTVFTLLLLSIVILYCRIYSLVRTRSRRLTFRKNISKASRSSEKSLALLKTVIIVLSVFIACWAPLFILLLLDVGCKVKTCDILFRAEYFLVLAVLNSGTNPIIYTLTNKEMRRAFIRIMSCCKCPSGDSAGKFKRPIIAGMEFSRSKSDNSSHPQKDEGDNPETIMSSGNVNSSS

CCN(CC)c1ccc2cc(C(N)=O)c(=N)oc2c1
EC50 [1]: > 100 µM (active)

Cc1ccc(C)c(C(=O)Cn2ncc(Cl)c(Cl)c2=O)c1
AC50 [2]: 14.5 µM (active) | IC50 [3]: 12.1 µM (not active) | IC50 [4]: 2.99 µM (active) | AC50 [5]: 8.4 µM (active) | EC50 [6]: 3.56 µM (active) | EC50 [7]: 2.35 µM (active)

CCOC(=O)c1c(C)n(Cc2ccccc2)c2ccc(OCC(O)CNC(C)(C)C)cc12 (stereo unspecified)
IC50 [8]: 14.5 µM (not active) | AC50 [9]: 22 µM (active) | IC50 (Insulin-degrading enzyme): > 55.9 µM (not active)

Cc1cc(C)nc(/N=C(\N)Nc2ccc(N)cc2)n1
EC50 (Bcl-2-like protein 10): 5.38 µM (active)

CN(C)S(=O)(=O)c1cccc(-c2nn(-c3ccccc3)cc2/C=C2\SC(=S)N(CC(=O)O)C2=O)c1
AC50 [10]: 15.5 µM (active) | IC50 [11]: 48.8 µM (active) | IC50 (Genome polyprotein): 79.5 µM (active) | IC50 [12]: 4.8 µM (active) | CC50 (Vero): > 40 µM (active)
